Test results published in patent US20240033228A1, “MESOPOROUS NANOPARTICLES SYSTEM TO INCREASE THE BIOFILM ERADICATION ACTIVITY BY MEANS OF THE CARRYING AND THE ADMINISTRATION OF AT LEAST ONE ACTIVE INGREDIENT AND RELATED PRODUCTION METHOD” (Brenta S.r.l., priority 2020, published 2024).
Values after ≈ are worked out from the molar mass of the structure shown.

Legend:
[1] = footnote a not given; cited from earlier work
[2] = water; cited from earlier work
S. aureus = experiment: Plate antimicrobial tests; format: cell-based; conditions: plate test; strain not given
Procedure: (§1) Plate antimicrobial tests were conducted to verify the inactivity of the nanoparticles and to confirm that the antibacterial activity is linked to being loaded with at least one API. The negative control corresponds to S. aureus and K. pneumoniae without API.

K. pneumoniae = experiment: Plate antimicrobial tests; format: cell-based; conditions: plate test; strain not given
Procedure: as §1

K. pneumoniae biofilm = experiment: Biofilm eradication test (MBEC assay with Calgary Biofilm Device); format: cell-based, Klebsiella pneumoniae
Procedure: The eradication tests were performed by adding free or loaded and/or supported API after the maturation of a biofilm for 24 hours. VCN was tested against S. aureus and NTF against […]. […] The log reduction was calculated according to the following formula: Log reduction (LR)=Log10(mean number of CPUs without […] number of CFUs after treatment), where CFUs are Colony Formation Units. Correspondingly, the eradication percentage P was calculated according to the following formula: […] Testing was performed by MBEC assay with Calgary Biofilm Device.

S. aureus biofilm = experiment: as above; format: cell-based, Staphylococcus aureus
Procedure: The eradication tests were performed by adding free or loaded and/or supported API after the maturation of a biofilm for 24 hours.
VCN was tested against S. aureus and NTF against T. pneumoniae.
The log reduction was calculated according to the following formula:
Log reduction (LR)=Log10(mean number of CPUs without reatment)/(mean number of CFUs after treatment), where CFUs are Colony Formation Units.
Correspondingly, the eradication percentage P was calculated according to the following formula: […]
Testing was performed by MBEC assay with Calgary Biofilm Device.

## COc1ccc2c(c1)c(CC(=O)O)c(C)n2C(=O)c1ccc(Cl)cc1 [INDM]
[1]
  LogP: 4.27
[2]
  Solubility H2O: 0.08 mg/mL (≈ 224 µM)

## CC(=O)N[C@@H](CS)C(=O)O [NAC, N-acetyl-L-cysteine]
[1]
  LogP: −0.03
S. aureus
  concentration below which no antibacterial activity is exhibited: 1 to 2 mg/mL
K. pneumoniae
  concentration below which no antibacterial activity is exhibited: 1 to 2 mg/mL

## O=C1CN(/N=C/c2ccc([N+](=O)[O-])o2)C(=O)N1 [NTF, Nitrofurantoin]
K. pneumoniae biofilm; K. pneumoniae preformed biofilm (24 hours), highest concentration tested
  Log Reduction Log (CFU/ml) ± SD: 2.5 ± 1.0 Log (CFU/ml)
K. pneumoniae biofilm; K. pneumoniae preformed biofilm, P=[1−10^−LR]*100
  P (%) eradication percentage: 99.7%
[2]
  Solubility H2O: 0.08 mg/mL (≈ 336 µM)

## CN[C@H](CC(C)C)C(=O)N[C@H]1C(=O)N[C@@H](CC(N)=O)C(=O)N[C@H]2C(=O)N[C@H]3C(=O)N[C@H](C(=O)N[C@H](C(=O)O)c4cc(O)cc(O)c4-c4cc3ccc4O)[C@H](O)c3ccc(c(Cl)c3)Oc3cc2cc(c3O[C@@H]2O[C@H](CO)[C@@H](O)[C@H](O)[C@H]2O[C@H]2C[C@](C)(N)[C@H](O)[C@H](C)O2)Oc2ccc(cc2Cl)[C@H]1O [VCN, vancomycin]
S. aureus biofilm; S. aureus preformed biofilm (24 hours), highest concentration tested
  Log Reduction Log (CFU/ml) ± SD: 2.0 ± 0.4 Log (CFU/ml)
S. aureus biofilm; S. aureus preformed biofilm, P=[1−10^−LR]*100
  P (%) eradication percentage: 99.0%
[2]
  Solubility H2O: >50 mg/mL
